“Also recorded” adds a separate entry of the source.
Tests used:
[1] = system: human blood cells; test: Preventive effect on hemolysis in human blood cells induced by free radicals; format: cell-based; details: compared with control group (FIG. 2)
Method: An experiment was conducted in accordance with the method of D. Blache. FASEB J. et al. (E. Bourdon, N. Loreau & D. Blache. FABES J. “Glucose and free radicals impair the antioxidant properties of serum albumin”, 13, 233-244(1999)). The time required for 50% hemolysis (HT50) was measured and the extension of the time required for HT50 compared with that of a control group was plotted on a graph. In this experiment, Vitamin E was employed as a positive control.

[2] = system: Human neuroblastoma cells, Lan-1; test: Induction of proliferation, differentiation and apoptosis of neuroblastoma cells; format: cell-based; set-up: key to Apoptosis / Proliferation / Differentiation: ++++: Extremely strongly stimulated (reinforced).; +++: Very strongly stimulated (reinforced).; ++: Strongly stimulated (reinforced).; +: Stimulated (reinforced).; +/−: No change.; −: Decreased (weakened); details: for effects on induction of differentiation or apoptosis versus proliferation: Lan-1 cells, summary of Table 1
Text: Human neuroblastoma cells, Lan-1 (Lan-1: a human neuroblastoma cell line with M1 and M2 muscarinic receptors conjugated with intracellular Ca^2+) were used to investigate the effects of the present compounds on the induction of proliferation, differentiation and apoptosis.

[3] = system: Fetal rat neurons in primary cultures; test: Effect on neurite outgrowth and neuron survival; format: cell-based; details: 10^−6 and 10^−7 M, incubation for 3 days, versus control group (FIG. 1)
Method: This experiment was conducted in accordance with the method of Luu, et al. (C. Girlanda-Junges, F. Keyling-Bilger, G. Schemitt & B. Luu, “Effect of Cyclohexenonic Long Chain Fatty Alcohols on Neurite Outgrowth. Study on Structure-Activity Relationship”, Tetrahedron, 54, 7735-77481998)). Fetal rat neurons in primary cultures were treated with Compound 1 at the concentrations of 10^−6 and 10^−7 M, followed by incubation for 3 days.

SMILES: OCCCCCCCCCCCCCCCCc1c[nH]c2ccccc12 [Compound 1, 3-(16-hydroxyhexadecyl)indole]
- extension of the time required for 50% hemolysis (HT50) [1]: extended HT50
- Apoptosis ([2]; Day 1, 0.1 μM): −
- Differentiation ([2]; Day 1, 0.1 μM): +/−
- Proliferation ([2]; Day 1, 0.1 μM): +
- Apoptosis ([2]; Day 1, 10 μM): +/−
- Differentiation ([2]; Day 1, 10 μM): ++
- Proliferation ([2]; Day 1, 10 μM): +
- Apoptosis ([2]; Day 1, 100 μM): +
- Differentiation ([2]; Day 1, 100 μM): +++
- Proliferation ([2]; Day 1, 100 μM): +/−
- Apoptosis ([2]; Day 2, 0.1 μM): −
- Differentiation ([2]; Day 2, 0.1 μM): +/−
- Proliferation ([2]; Day 2, 0.1 μM): ++
- Apoptosis ([2]; Day 2, 10 μM): +/−
- Differentiation ([2]; Day 2, 10 μM): +++
- Proliferation ([2]; Day 2, 10 μM): +
- Apoptosis ([2]; Day 2, 100 μM): +
- Differentiation ([2]; Day 2, 100 μM): ++++
- Proliferation ([2]; Day 2, 100 μM): −
- Apoptosis ([2]; Day 5, 0.1 μM): −
- Differentiation ([2]; Day 5, 0.1 μM): +/−
- Proliferation ([2]; Day 5, 0.1 μM): +/−
- Apoptosis ([2]; Day 5, 10 μM): ++
- Differentiation ([2]; Day 5, 10 μM): +++
- Proliferation ([2]; Day 5, 10 μM): +/−
- Apoptosis ([2]; Day 5, 100 μM): +++
- Differentiation ([2]; Day 5, 100 μM): +
- Proliferation ([2]; Day 5, 100 μM): −
- Apoptosis ([2]; Day 7, 0.1 μM): +/−
- Differentiation ([2]; Day 7, 0.1 μM): +
- Proliferation ([2]; Day 7, 0.1 μM): +/−
- Apoptosis ([2]; Day 7, 10 μM): ++
- Differentiation ([2]; Day 7, 10 μM): ++++
- Proliferation ([2]; Day 7, 10 μM): +/−
- Apoptosis ([2]; Day 7, 100 μM): +++
- Differentiation ([2]; Day 7, 100 μM): ++
- Proliferation ([2]; Day 7, 100 μM): −
- effects on induction of differentiation or apoptosis versus proliferation [2]: stronger effects on induction of differentiation or apoptosis of neuroblastoma cells rather than on proliferation
- proportion of the neurons with neurites of 50 μm or longer [3]: higher in the treated group than in the control group
- melting point: 79 to 80 °C

SMILES: OCCc1c[nH]c2ccccc12 [Compound 2, 3-(2-hydroxyethyl)indole]
- extension of the time required for 50% hemolysis (HT50) [1]: extended HT50

SMILES: OCCCCCCCCCCc1c[nH]c2ccccc12 [Compound 3, 3-(10-hydroxydecyl)indole]
- Apoptosis ([2]; Day 1, 0.1 μM): −
- Differentiation ([2]; Day 1, 0.1 μM): +
- Proliferation ([2]; Day 1, 0.1 μM): +
- Apoptosis ([2]; Day 1, 10 μM): −
- Differentiation ([2]; Day 1, 10 μM): +++
- Proliferation ([2]; Day 1, 10 μM): +/−
- Apoptosis ([2]; Day 1, 100 μM): ++
- Differentiation ([2]; Day 1, 100 μM): +
- Proliferation ([2]; Day 1, 100 μM): −
- Apoptosis ([2]; Day 2, 0.1 μM): −
- Differentiation ([2]; Day 2, 0.1 μM): +
- Proliferation ([2]; Day 2, 0.1 μM): +
- Apoptosis ([2]; Day 2, 10 μM): +
- Differentiation ([2]; Day 2, 10 μM): ++
- Proliferation ([2]; Day 2, 10 μM): +/−
- Apoptosis ([2]; Day 2, 100 μM): ++
- Differentiation ([2]; Day 2, 100 μM): +
- Proliferation ([2]; Day 2, 100 μM): +/−
- Apoptosis ([2]; Day 5, 0.1 μM): +/−
- Differentiation ([2]; Day 5, 0.1 μM): −
- Proliferation ([2]; Day 5, 0.1 μM): +
- Apoptosis ([2]; Day 5, 10 μM): +
- Differentiation ([2]; Day 5, 10 μM): ++
- Proliferation ([2]; Day 5, 10 μM): +/−
- Apoptosis ([2]; Day 5, 100 μM): ++
- Differentiation ([2]; Day 5, 100 μM): +++
- Proliferation ([2]; Day 5, 100 μM): +/−
- Apoptosis ([2]; Day 7, 0.1 μM): +/−
- Differentiation ([2]; Day 7, 0.1 μM): +/−
- Proliferation ([2]; Day 7, 0.1 μM): ++
- Apoptosis ([2]; Day 7, 10 μM): +
- Differentiation ([2]; Day 7, 10 μM): +++
- Proliferation ([2]; Day 7, 10 μM): +/−
- Apoptosis ([2]; Day 7, 100 μM): ++++
- effects on induction of differentiation or apoptosis versus proliferation [2]: stronger effects on induction of differentiation or apoptosis of neuroblastoma cells rather than on proliferation

SMILES: OCCCCCCCCCCCc1c[nH]c2ccccc12 [Compound 4, 3-(11-hydroxyundecyl)indole]
- extension of the time required for 50% hemolysis (HT50) [1]: extended HT50; also recorded: strong effect
- Apoptosis ([2]; Day 1, 0.1 μM): −
- Differentiation ([2]; Day 1, 0.1 μM): −
- Proliferation ([2]; Day 1, 0.1 μM): ++
- Apoptosis ([2]; Day 1, 10 μM): −
- Differentiation ([2]; Day 1, 10 μM): ++
- Proliferation ([2]; Day 1, 10 μM): +
- Apoptosis ([2]; Day 1, 100 μM): +++
- Differentiation ([2]; Day 1, 100 μM): +
- Proliferation ([2]; Day 1, 100 μM): +/−
- Apoptosis ([2]; Day 2, 0.1 μM): −
- Differentiation ([2]; Day 2, 0.1 μM): +
- Proliferation ([2]; Day 2, 0.1 μM): +
- Apoptosis ([2]; Day 2, 10 μM): +
- Differentiation ([2]; Day 2, 10 μM): ++
- Proliferation ([2]; Day 2, 10 μM): +/−
- Apoptosis ([2]; Day 2, 100 μM): +++
- Differentiation ([2]; Day 2, 100 μM): −
- Proliferation ([2]; Day 2, 100 μM): −
- Apoptosis ([2]; Day 5, 0.1 μM): −
- Differentiation ([2]; Day 5, 0.1 μM): +/−
- Proliferation ([2]; Day 5, 0.1 μM): +/−
- Apoptosis ([2]; Day 5, 10 μM): −
- Differentiation ([2]; Day 5, 10 μM): ++
- Proliferation ([2]; Day 5, 10 μM): +/−
- Apoptosis ([2]; Day 5, 100 μM): +
- Differentiation ([2]; Day 5, 100 μM): ++++
- Proliferation ([2]; Day 5, 100 μM): +
- Apoptosis ([2]; Day 7, 0.1 μM): −
- Differentiation ([2]; Day 7, 0.1 μM): +/−
- Proliferation ([2]; Day 7, 0.1 μM): ++
- Apoptosis ([2]; Day 7, 10 μM): +/−
- Differentiation ([2]; Day 7, 10 μM): ++
- Proliferation ([2]; Day 7, 10 μM): +/−
- Apoptosis ([2]; Day 7, 100 μM): ++++
- effects on induction of differentiation or apoptosis versus proliferation [2]: stronger effects on induction of differentiation or apoptosis of neuroblastoma cells rather than on proliferation
